Data set [1] has as its target T1, HCV NS3/4A protease complex, BMS strain (UniProt P27958, species not given/STRAIN_BMS).
T1 construct: said of H77 and J4L6S; fused on or other part: A three-lysine solubilising tail at the C-terminus of NS4A and a His tag (pET21b, Ni-NTA purification)
Nature of the data set: FRET peptide assay to monitor HCV NS3/4A proteolytic activity (BMS strain). Type of data set: biochemical, Hepatitis C virus (genotype 1a). The note with it: NS3/4A BMS strain; read-out: IC50 Range. An outline of the steps: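 Recombinant NS3/4A complexes (aa 1027–1711) from H77 (1a) and J4L6S (1b) carried a three-lysine tail, C1711G and C1454S. They were expressed in E. coli BL21(DE3) (0.5 mM IPTG, 22 h, 20 °C), then purified by Ni-NTA and Superdex-S200 to >90% purity. The BMS strain was a genotype 1a clone from patient serum.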

The subject of data set [2] is HCV replicon in HUH-7 cells. Nature of the data set: HCV replicon FRET assay. Type of data set: cell-based, Hepatitis C virus (strain 1b). The note with it: Hepatitis C virus. An outline of the steps: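 HUH-7 cells stably carrying a genotype 1b subgenomic HCV replicon (NS3–NS5B) treated with compound for 4 days at 37° C, 0.5% DMSO final. Cytotoxicity (CC50) read by alamar Blue; cells then lysed with 10 μM FRET HCV protease peptide substrate and kinetically read (340/490 nm) for EC50.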

The mark [3] stands for this setting: Huh-7, HCV replicon, for compounds tested, read-out: EC50 Range.

Read-outs that look alike come from different tables or passages of the source. Some results are limits rather than exact numbers.

One may read the IC50 as the concentration needed to halve the response being measured. A word on the EC50: it is the concentration at which the effect is half-maximal. In general, melting point refers to the temperature, or range, at which the solid turns liquid.

T1 sequence (P27958 1027-1657, change not shown, one chain of several): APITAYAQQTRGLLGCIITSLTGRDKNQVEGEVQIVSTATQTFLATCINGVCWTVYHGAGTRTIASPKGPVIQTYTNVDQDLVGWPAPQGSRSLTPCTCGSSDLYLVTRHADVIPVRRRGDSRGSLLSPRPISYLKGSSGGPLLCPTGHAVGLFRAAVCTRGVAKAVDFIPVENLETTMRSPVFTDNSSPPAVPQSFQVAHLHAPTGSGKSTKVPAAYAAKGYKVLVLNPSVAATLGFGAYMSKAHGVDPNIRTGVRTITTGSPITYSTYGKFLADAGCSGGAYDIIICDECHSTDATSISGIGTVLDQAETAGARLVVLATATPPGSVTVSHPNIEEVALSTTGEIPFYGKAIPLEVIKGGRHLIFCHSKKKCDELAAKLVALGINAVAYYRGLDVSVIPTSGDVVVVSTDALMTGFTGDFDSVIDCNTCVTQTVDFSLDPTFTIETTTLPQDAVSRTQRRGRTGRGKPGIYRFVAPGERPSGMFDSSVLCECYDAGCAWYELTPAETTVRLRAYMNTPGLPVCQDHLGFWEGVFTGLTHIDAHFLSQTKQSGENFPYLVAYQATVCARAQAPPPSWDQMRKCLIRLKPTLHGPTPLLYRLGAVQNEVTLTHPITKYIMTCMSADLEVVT

As for `CC(C)(C)OC(=O)N[C@H]1COCCC/C=C\[C@@H]2C[C@@]2(C(=O)NS(=O)(=O)C2CC2)NC(=O)[C@@H]2C[C@@H](OC(=O)Nc3ccccc3-c3ccccc3)CN2C1=O` [Compound 42, 18-(2-biphenylaminocarbonyloxy)-14-tert-butoxycarbonylamino-4-cyclopropylsulfonylaminocarbonyl-2,15-dioxo-3,16-diaza-12-oxatricyclo-[14.3.0.0^4,6]-nonadec-7-ene], the melting point lay within 147 to 149 °C. For the same compound, the IC50 in data set [1] was under 100 nM. In data set [2] (setting [3]), the EC50 lay within 100 to 1000 nM.

Compound `CC(C)(C)OC(=O)N[C@H]1CCCCC/C=C\[C@@H]2C[C@@]2(C(=O)NS(=O)(=O)C2CC2)NC(=O)[C@@H]2C[C@@H](OC(=O)c3cnccn3)CN2C1=O` [Compound 27, 18-(pyrazinecarbonyloxy)-14-tert-butoxycarbonylamino-4-cyclopropylsulfonylaminocarbonyl-2,15-dioxo-3,16-diazatricyclo-[14.3.0.0^4,6]-nonadec-7-ene] displayed a melting point of 150 to 152 °C. For the same compound, the IC50 in data set [1] is under 100 nM. Besides, in data set [2] (setting [3]), the EC50 was over 1000 nM.

Compound `CC(C)(C)OC(=O)N[C@H]1COCCC/C=C\[C@@H]2C[C@@]2(C(=O)NS(=O)(=O)C2CC2)NC(=O)[C@@H]2C[C@@H](OC(=O)Nc3ccccc3Oc3ccccc3)CN2C1=O` [Compound 40, 18-(2-phenoxyphenylaminocarbonyloxy)-14-tert-butoxycarbonylamino-4-cyclopropylsulfonylaminocarbonyl-2,15-dioxo-3,16-diaza-12-oxatricyclo-[14.3.0.0^4,6]-nonadec-7-ene] gave a melting point of 151 to 153 °C. Further, the concentration for half-maximal inhibition (IC50) in data set [1] fell in the range of 100 to 1000 nM. Also, in data set [2] (setting [3]), the concentration giving a half-maximal response (EC50) lay within 100 to 1000 nM.

Take `CC(C)(C)OC(=O)N[C@H]1CCCOC/C=C\[C@@H]2C[C@@]2(C(=O)NS(=O)(=O)C2CC2)NC(=O)[C@@H]2C[C@@H](OC(=O)C(C)(C)C)CN2C1=O` [Compound 4, 18-pivaloyloxy-14-tert-butoxycarbonylamino-4-cyclopropylsulfonylaminocarbonyl-2,15-dioxo-3,16-diaza-10-oxatricyclo-[14.3.0.0^4,6]-nonadec-7-ene]: the melting point lay within 143 to 145 °C. Besides, the IC50 in data set [1] was under 100 nM. Further, the EC50 in data set [2] (setting [3]) is over 1000 nM.

`CC(C)(C)OC(=O)N[C@H]1CCCCC/C=C\[C@@H]2C[C@@]2(C(=O)NS(=O)(=O)C2CC2)NC(=O)[C@@H]2C[C@@H](OC(=O)c3ccc4nccnc4c3)CN2C1=O` [Compound 24, 18-(6-quinoxalinecarbonyloxy)-14-tert-butoxycarbonylamino-4-cyclopropylsulfonylaminocarbonyl-2,15-dioxo-3,16-diazatricyclo-[14.3.0.0^4,6]-nonadec-7-ene] returned a melting point of 158 to 160 °C. For the same compound, the IC50 in data set [1] is under 100 nM. Moreover, in data set [2] (setting [3]), the EC50 was under 100 nM.

In turn, `COc1ccccc1C(=O)O[C@@H]1C[C@H]2C(=O)N[C@]3(C(=O)NS(=O)(=O)C4CC4)C[C@H]3/C=C\COCCC[C@H](NC(=O)OC(C)(C)C)C(=O)N2C1` [Compound 7, 18-(2-methoxybenzoyloxy)-14-tert-butoxycarbonylamino-4-cyclopropylsulfonylaminocarbonyl-2,15-dioxo-3,16-diaza-10-oxa-tricyclo-[14.3.0.0^4,6]-nonadec-7-ene] showed a melting point of 144 to 146 °C. Moreover, the IC50 in data set [1] is under 100 nM. Besides, the EC50 in data set [2] (setting [3]) is over 1000 nM.

`CC(C)(C)OC(=O)N[C@H]1CCCCC/C=C\[C@@H]2C[C@@]2(C(=O)NS(=O)(=O)C2CC2)NC(=O)[C@@H]2C[C@@H](OC(=O)c3ccc(-n4cccn4)cc3)CN2C1=O` [Compound 32, 18-(4-[1-pyrazolyl]benzoyloxy)-14-tert-butoxycarbonylamino-4-cyclopropylsulfonylaminocarbonyl-2,15-dioxo-3,16-diazatricyclo-[14.3.0.0^4,6]-nonadec-7-ene] gave a melting point of 167 to 169 °C. For the same compound, in data set [1], the IC50 is under 100 nM. Moreover, the concentration giving a half-maximal response (EC50) in data set [2] (setting [3]) is under 100 nM.

In the case of `CC(C)(C)OC(=O)N[C@H]1COCCC/C=C\[C@@H]2C[C@@]2(C(=O)NS(=O)(=O)C2CC2)NC(=O)[C@@H]2C[C@@H](OC(=O)N3CCc4ccccc43)CN2C1=O` [Compound 45, 18-(indolinecarbonyloxy)-14-tert-butoxycarbonylamino-4-cyclopropylsulfonylaminocarbonyl-2,15-dioxo-3,16-diaza-12-oxatricyclo-[14.3.0.0^4,6]-nonadec-7-ene], the melting point lay within 128 to 130 °C. In addition, the 50% inhibitory concentration (IC50) in data set [1] was under 100 nM. Further, in data set [2] (setting [3]), the EC50 was 100 to 1000 nM.

For `COc1cccc(C(=O)O[C@@H]2C[C@H]3C(=O)N[C@]4(C(=O)NS(=O)(=O)C5CC5)C[C@H]4/C=C\COCCC[C@H](NC(=O)OC(C)(C)C)C(=O)N3C2)c1` [Compound 9, 18-(3-methoxybenzoyloxy)-14-tert-butoxycarbonylamino-4-cyclopropylsulfonylaminocarbonyl-2,15-dioxo-3,16-diaza-10-oxatricyclo-[14.3.0.0^4,6]-nonadec-7-ene], the melting point was in the range of 149 to 151 °C. The IC50 in data set [1] was under 100 nM. The concentration for a half-maximal effect (EC50) in data set [2] (setting [3]) was 100 to 1000 nM.

`CC(C)(C)OC(=O)N[C@H]1COCCC/C=C\[C@@H]2C[C@@]2(C(=O)NS(=O)(=O)C2CC2)NC(=O)[C@@H]2C[C@@H](OC(=O)c3ccccc3)CN2C1=O` [Compound 12, 18-benzoyloxy-14-tert-butoxycarbonylamino-4-cyclopropylsulfonylaminocarbonyl-2,15-dioxo-3,16-diaza-12-oxatricyclo-[14.3.0.0^4,6]-nonadec-7-ene]: the melting point is 135 to 137 °C. Moreover, the 50% inhibitory concentration (IC50) in data set [1] is under 100 nM. In addition, the EC50 in data set [2] (setting [3]) is 100 to 1000 nM.

`CC(C)(C)OC(=O)N[C@H]1CCCCC/C=C\[C@@H]2C[C@@]2(C(=O)NS(=O)(=O)C2CC2)NC(=O)[C@@H]2C[C@@H](OC(=O)c3ccc(Cl)cc3)CN2C1=O` [Compound 21, 18-(4-chlorobenzoyloxy)-14-tert-butoxycarbonylamino-4-cyclopropylsulfonylaminocarbonyl-2,15-dioxo-3,16-diazatricyclo-[14.3.0.0^4,6]-nonadec-7-ene] displayed a melting point of 143 to 145 °C. The half-inhibitory concentration (IC50) in data set [1] is under 100 nM. Further, in data set [2] (setting [3]), the EC50 is under 100 nM.

`CC(C)(C)OC(=O)N[C@H]1CCCCC/C=C\[C@@H]2C[C@@]2(C(=O)NS(=O)(=O)C2CC2)NC(=O)[C@@H]2C[C@@H](OC(=O)c3ccc4c(c3)OCCO4)CN2C1=O` [Compound 25, 18-(2,3-dihydro-1,4-benzodioxine-6-carbonyloxy)-14-tert-butoxycarbonylamino-4-cyclopropylsulfonylaminocarbonyl-2,15-dioxo-3,16-diazatricyclo-[14.3.0.0^4,6]-nonadec-7-ene] yielded a melting point of 199 to 201 °C. Moreover, the IC50 in data set [1] was under 100 nM. In data set [2] (setting [3]), the 50% effective concentration (EC50) is under 100 nM.

The compound `COc1ccc(C(=O)O[C@@H]2C[C@H]3C(=O)N[C@]4(C(=O)NS(=O)(=O)C5CC5)C[C@H]4/C=C\COCCC[C@H](NC(=O)OC(C)(C)C)C(=O)N3C2)cc1` [Compound 10, 18-(4-methoxybenzoyloxy)-14-tert-butoxycarbonylamino-4-cyclopropylsulfonylaminocarbonyl-2,15-dioxo-3,16-diaza-10-oxatricyclo-[14.3.0.0^4,6]-nonadec-7-ene] yielded a melting point of 145 to 147 °C. Moreover, the half-inhibitory concentration (IC50) in data set [1] is under 100 nM. Further, the 50% effective concentration (EC50) in data set [2] (setting [3]) lay in the range of 100 to 1000 nM.

Turning to `CC(C)(C)OC(=O)N[C@H]1CCCOC/C=C\[C@@H]2C[C@@]2(C(=O)NS(=O)(=O)C2CC2)NC(=O)[C@@H]2C[C@@H](OC(=O)c3ccccc3)CN2C1=O` [Compound 1, 18-benzoyloxy-14-tert-butoxycarbonylamino-4-cyclopropylsulfonylaminocarbonyl-2,15-dioxo-3,16-diaza-10-oxatricyclo[14.3.0.0^4,6]nonadec-7-ene], the melting point was in the range of 153 to 155 °C. Also, the 50% inhibitory concentration (IC50) in data set [1] is under 100 nM. Also, the 50% effective concentration (EC50) in data set [2] (setting [3]) lay within 100 to 1000 nM.

For the compound `CC(C)(C)OC(=O)N[C@H]1CCCOC/C=C\[C@@H]2C[C@@]2(C(=O)NS(=O)(=O)C2CC2)NC(=O)[C@@H]2C[C@@H](OC(=O)CC3CCCCC3)CN2C1=O` [Compound 6, 18-cyclohexaneacetyloxy-14-tert-butoxycarbonylamino-4-cyclopropylsulfonylaminocarbonyl-2,15-dioxo-3,16-diaza-10-oxatricyclo-[14.3.0.0^4,6]-nonadec-7-ene], the melting point was 107 to 109 °C. Further, in data set [1], the IC50 was under 100 nM. For the same compound, the half-maximal effective concentration (EC50) in data set [2] (setting [3]) was over 1000 nM.

On to `COC(=O)c1ccccc1NC(=O)O[C@@H]1C[C@H]2C(=O)N[C@]3(C(=O)NS(=O)(=O)C4CC4)C[C@H]3/C=C\COCCC[C@H](NC(=O)OC(C)(C)C)C(=O)N2C1` [Compound 38, 18-(2-carbomethoxyphenylaminocarbonyloxy)-14-tert-butoxycarbonylamino-4-cyclopropylsulfonylaminocarbonyl-2,15-dioxo-3,16-diaza-10-oxatricyclo-[14.3.0.0^4,6]-nonadec-7-ene], for which the melting point is 147 to 149 °C. For the same compound, the IC50 in data set [1] was under 100 nM. Besides, the EC50 in data set [2] (Huh-7, read-out: EC50 Range) was in the range of 100 to 1000 nM.

These data come from US7772183B2 (Bristol-Myers Squibb Company, priority 2005, dated 2010).
